Assay results reported in article PMC8222254, “Self-assembly of an anion receptor with metal-dependent kinase inhibition and potent in vitro anti-cancer properties” (Nature Communications, 2021).
Values joined by “and” are separate entries in the source; they are usually repeats but may differ in a detail not shown here. Identical values can stand only once.

Key:
Test in all cases: Kinase inhibition screen, cell-free 33P ATP assay at 10 μM
Type in all cases: biochemical
[1] = target: T1, 140 purified human kinases (Homo sapiens, UniProt O15530); details: PDK1
T1 sequence (O15530 1-556): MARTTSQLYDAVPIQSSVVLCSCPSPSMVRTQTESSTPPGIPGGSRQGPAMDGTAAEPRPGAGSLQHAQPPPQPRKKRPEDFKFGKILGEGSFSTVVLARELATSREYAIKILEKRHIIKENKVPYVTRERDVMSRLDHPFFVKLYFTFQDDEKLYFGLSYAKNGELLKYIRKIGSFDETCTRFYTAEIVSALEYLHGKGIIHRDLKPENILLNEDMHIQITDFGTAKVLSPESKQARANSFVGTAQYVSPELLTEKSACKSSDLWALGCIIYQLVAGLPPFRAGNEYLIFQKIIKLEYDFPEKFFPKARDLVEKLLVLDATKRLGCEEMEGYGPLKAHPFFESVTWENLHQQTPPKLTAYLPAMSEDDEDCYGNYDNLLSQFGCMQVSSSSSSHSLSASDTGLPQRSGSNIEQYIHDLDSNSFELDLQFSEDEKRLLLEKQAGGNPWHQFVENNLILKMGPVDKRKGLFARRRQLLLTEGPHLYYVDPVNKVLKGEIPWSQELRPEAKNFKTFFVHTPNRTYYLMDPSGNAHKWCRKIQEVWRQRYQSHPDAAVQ
How it was run: (§1)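 Each complex tested in duplicate at 10 μM; cell-free radiometric assay using ^33P ATP on purified enzymes. Hits mapped by HGNC symbol onto the kinome tree.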

[2] = target: T2, 140 purified human kinases (Homo sapiens, UniProt O60285); details: NUAK1
T2 sequence (O60285 1-661): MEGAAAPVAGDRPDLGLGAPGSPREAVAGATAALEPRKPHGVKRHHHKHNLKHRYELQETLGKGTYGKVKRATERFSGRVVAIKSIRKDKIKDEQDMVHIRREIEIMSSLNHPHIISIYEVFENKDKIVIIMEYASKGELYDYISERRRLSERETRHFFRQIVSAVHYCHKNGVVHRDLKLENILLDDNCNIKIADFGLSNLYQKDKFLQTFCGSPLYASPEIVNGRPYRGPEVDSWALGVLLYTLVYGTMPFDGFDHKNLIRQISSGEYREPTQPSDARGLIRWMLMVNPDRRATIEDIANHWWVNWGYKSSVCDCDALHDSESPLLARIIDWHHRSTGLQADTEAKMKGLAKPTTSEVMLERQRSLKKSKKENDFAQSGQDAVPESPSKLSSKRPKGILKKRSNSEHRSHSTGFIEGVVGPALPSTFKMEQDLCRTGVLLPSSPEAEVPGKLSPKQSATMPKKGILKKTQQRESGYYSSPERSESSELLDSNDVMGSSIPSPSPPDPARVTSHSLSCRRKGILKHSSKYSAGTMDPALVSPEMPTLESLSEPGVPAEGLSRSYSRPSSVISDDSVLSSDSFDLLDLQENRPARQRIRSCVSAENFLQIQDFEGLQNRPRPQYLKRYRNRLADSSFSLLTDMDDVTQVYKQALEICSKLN
How it was run: as §1

[3] = target: 140 purified human kinases (Homo sapiens, UniProt O75582); details: MSK1
How it was run: as §1

[4] = target: 140 purified human kinases (Homo sapiens, UniProt O95747); details: OSR1
How it was run: as §1

[5] = target: 140 purified human kinases (Homo sapiens, UniProt P00519); details: ABL
How it was run: as §1

[6] = target: 140 purified human kinases (Homo sapiens, UniProt P06213); details: IR
How it was run: as §1

[7] = target: 140 purified human kinases (Homo sapiens, UniProt P11309); details: PIM1
How it was run: as §1

[8] = target: 140 purified human kinases (Homo sapiens, UniProt P53779); details: JNK3
How it was run: as §1

[9] = target: 140 purified human kinases (Homo sapiens, UniProt Q13882); details: BRK
How it was run: as §1

[10] = target: 140 purified human kinases (Homo sapiens, UniProt Q16816); details: PHK
How it was run: as §1

[11] = target: 140 purified human kinases (Homo sapiens, UniProt Q9P1W9); details: PIM2
How it was run: as §1

[12] = target: 140 purified human kinases (Homo sapiens, UniProt Q9Y6E0); details: MST3
How it was run: as §1

Chain of 140 purified human kinases (Homo sapiens, UniProt Q16816) (Q16816 whole entry): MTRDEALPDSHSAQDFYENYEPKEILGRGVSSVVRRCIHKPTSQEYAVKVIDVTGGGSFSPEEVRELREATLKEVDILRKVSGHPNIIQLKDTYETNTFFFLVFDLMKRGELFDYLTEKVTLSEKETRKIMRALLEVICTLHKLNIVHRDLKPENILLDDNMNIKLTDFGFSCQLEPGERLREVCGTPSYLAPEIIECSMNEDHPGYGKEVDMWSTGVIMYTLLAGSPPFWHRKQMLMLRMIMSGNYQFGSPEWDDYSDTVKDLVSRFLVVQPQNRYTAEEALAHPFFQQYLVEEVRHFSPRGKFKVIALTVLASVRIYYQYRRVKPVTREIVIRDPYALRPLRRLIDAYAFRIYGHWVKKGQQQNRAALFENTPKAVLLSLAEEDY
Chain of 140 purified human kinases (Homo sapiens, UniProt Q13882) (Q13882 whole entry): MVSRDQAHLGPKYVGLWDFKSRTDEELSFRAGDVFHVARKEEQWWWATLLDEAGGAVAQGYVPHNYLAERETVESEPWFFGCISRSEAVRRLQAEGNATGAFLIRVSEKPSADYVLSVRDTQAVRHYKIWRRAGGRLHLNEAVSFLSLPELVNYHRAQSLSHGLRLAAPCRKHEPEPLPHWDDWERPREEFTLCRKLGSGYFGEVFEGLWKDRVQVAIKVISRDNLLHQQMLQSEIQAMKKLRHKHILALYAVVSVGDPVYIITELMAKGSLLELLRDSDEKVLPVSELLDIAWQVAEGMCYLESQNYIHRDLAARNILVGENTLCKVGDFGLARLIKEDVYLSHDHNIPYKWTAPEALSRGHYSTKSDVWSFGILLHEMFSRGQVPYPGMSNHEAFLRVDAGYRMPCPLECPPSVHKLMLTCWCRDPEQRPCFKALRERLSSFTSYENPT
Chain of 140 purified human kinases (Homo sapiens, UniProt Q9Y6E0) (Q9Y6E0 whole entry): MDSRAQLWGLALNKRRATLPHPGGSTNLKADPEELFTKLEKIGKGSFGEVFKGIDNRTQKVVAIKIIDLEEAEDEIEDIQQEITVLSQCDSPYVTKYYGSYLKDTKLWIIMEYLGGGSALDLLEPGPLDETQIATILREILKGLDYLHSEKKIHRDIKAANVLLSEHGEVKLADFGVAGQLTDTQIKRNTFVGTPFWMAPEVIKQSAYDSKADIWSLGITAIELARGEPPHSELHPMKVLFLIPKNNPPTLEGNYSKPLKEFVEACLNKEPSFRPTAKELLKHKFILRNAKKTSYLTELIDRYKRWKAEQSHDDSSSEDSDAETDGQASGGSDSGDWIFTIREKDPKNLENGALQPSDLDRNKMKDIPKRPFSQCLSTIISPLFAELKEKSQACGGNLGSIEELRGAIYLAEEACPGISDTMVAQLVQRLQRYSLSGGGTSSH
Chain of 140 purified human kinases (Homo sapiens, UniProt P53779) (P53779 whole entry): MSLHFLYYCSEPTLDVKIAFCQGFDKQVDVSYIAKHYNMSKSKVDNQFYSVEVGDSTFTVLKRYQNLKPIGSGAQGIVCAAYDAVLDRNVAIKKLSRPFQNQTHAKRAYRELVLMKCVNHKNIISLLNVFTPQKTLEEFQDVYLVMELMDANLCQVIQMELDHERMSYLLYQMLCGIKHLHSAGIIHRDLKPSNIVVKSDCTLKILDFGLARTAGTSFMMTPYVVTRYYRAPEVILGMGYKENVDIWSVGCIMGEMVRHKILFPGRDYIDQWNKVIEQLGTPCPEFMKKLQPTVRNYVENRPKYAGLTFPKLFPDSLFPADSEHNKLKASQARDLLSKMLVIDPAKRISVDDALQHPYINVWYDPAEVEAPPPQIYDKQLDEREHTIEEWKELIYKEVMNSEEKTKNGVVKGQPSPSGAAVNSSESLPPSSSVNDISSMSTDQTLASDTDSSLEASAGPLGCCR
Chain of 140 purified human kinases (Homo sapiens, UniProt P06213) (P06213 28-1382): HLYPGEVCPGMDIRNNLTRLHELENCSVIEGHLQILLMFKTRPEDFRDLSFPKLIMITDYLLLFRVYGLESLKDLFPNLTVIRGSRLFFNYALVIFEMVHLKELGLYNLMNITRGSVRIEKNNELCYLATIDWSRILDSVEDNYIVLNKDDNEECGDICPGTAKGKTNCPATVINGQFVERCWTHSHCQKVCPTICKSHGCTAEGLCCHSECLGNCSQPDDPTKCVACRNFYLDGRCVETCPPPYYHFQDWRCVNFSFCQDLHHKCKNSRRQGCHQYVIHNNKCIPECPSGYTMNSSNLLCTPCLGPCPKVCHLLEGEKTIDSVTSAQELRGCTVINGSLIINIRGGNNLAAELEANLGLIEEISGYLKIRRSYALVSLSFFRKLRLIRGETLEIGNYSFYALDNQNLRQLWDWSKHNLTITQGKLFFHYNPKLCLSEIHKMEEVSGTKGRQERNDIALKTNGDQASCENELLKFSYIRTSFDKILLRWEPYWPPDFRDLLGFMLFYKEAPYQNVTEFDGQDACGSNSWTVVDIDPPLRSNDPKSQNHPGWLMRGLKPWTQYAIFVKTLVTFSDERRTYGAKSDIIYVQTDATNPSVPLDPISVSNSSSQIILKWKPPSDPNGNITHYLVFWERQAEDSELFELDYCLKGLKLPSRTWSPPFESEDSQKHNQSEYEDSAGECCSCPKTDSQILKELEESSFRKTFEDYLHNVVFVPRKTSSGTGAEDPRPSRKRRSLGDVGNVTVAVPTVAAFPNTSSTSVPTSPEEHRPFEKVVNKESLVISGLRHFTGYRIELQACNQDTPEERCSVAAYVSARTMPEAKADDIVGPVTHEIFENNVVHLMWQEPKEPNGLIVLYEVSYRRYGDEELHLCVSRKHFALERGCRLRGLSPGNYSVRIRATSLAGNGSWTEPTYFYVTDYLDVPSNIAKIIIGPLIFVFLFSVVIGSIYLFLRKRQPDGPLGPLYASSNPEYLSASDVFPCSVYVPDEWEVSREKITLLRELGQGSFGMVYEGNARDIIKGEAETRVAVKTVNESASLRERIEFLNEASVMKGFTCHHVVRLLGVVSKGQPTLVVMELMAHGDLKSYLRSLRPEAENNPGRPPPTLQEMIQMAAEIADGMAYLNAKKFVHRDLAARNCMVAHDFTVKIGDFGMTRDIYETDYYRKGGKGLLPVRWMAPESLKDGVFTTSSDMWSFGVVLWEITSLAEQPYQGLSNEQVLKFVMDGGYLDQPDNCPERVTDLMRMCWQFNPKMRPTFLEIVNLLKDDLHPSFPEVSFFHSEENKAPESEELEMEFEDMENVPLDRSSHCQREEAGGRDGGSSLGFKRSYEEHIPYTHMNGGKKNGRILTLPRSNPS
Chain of 140 purified human kinases (Homo sapiens, UniProt O95747) (O95747 whole entry): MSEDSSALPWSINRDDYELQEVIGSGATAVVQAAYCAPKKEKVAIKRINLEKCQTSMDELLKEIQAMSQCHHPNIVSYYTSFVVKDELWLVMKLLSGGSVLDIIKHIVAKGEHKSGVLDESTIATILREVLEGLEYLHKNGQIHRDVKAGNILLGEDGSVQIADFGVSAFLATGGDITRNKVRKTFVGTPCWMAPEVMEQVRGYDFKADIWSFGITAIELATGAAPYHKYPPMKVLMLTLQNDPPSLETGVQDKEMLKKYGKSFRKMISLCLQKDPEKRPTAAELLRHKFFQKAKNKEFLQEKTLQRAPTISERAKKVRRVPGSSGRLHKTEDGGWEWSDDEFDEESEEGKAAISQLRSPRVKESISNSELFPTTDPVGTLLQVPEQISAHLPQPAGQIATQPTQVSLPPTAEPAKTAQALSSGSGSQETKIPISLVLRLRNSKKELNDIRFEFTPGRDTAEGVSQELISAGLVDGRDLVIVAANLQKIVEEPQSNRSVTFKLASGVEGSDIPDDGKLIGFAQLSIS
Chain of 140 purified human kinases (Homo sapiens, UniProt O75582) (O75582 whole entry): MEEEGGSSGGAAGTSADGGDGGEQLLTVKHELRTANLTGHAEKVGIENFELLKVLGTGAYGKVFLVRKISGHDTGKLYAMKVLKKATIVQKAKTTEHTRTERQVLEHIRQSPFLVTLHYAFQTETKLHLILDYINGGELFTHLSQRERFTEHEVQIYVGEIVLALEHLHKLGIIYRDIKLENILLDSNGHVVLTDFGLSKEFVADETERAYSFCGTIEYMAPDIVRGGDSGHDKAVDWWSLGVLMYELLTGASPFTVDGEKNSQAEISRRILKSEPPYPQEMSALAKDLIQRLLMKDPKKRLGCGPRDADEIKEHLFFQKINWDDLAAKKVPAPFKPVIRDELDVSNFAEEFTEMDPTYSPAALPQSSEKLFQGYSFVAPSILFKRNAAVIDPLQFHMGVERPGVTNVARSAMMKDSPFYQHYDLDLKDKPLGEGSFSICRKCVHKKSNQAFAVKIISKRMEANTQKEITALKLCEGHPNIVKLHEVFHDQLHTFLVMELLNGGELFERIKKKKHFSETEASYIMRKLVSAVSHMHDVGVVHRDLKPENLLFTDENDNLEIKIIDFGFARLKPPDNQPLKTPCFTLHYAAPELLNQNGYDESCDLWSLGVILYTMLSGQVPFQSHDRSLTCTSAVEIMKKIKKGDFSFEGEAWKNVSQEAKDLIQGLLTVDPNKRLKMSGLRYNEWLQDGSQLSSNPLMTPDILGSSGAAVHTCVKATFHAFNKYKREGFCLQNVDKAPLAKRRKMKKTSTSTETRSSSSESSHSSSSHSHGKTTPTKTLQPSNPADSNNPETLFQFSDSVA
Chain of 140 purified human kinases (Homo sapiens, UniProt P11309) (P11309 whole entry): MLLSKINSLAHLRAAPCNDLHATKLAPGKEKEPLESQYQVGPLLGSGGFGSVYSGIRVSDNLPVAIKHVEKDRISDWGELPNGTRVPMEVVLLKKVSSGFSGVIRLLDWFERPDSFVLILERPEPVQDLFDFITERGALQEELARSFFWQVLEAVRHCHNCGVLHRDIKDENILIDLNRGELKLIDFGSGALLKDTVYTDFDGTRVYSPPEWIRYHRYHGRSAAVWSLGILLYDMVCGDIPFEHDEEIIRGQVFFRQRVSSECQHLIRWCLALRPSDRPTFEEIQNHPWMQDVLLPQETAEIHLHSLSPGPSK

`CC(=O)[O-].CC(=O)[O-].CC(=O)[O-].CC(=O)[O-].CC(=O)[O-].CC(=O)[O-].[Zn+2].[Zn+2].[Zn+2].c1ccc(-c2csc(NCCN(CCNc3nc(-c4ccccn4)cs3)CCNc3nc(-c4ccccn4)cs3)n2)nc1.c1ccc(-c2csc(NCCN(CCNc3nc(-c4ccccn4)cs3)CCNc3nc(-c4ccccn4)cs3)n2)nc1` [[L2Zn3]6+] was tested, and the “% Activation, Mean value” [1] was 46%, the “% Inhibition, Mean” value [1] was -46% and the mean % activity [1] was 146%. The “% Activity Run 1” value ([1]; 10 µM) was 131.0%, the “% Activity Run 2” value ([1]; 10 µM) was 160.0% and the “% activity” value ([1]; duplicate runs) was 131% and 160%. For the same compound, the “% Inhibition, Mean” value [2] was 61%, the “% Inhibition, Run 1 / Run 2” value [2] was 64% and 59% and the mean % activity [2] was 39%. The “% activity” value ([2]; duplicate runs) was 36% and 41%, the “% Inhibition, Mean” value [3] was 22% and the “% Inhibition, Run 1 / Run 2” value [3] was 27% and 18%. For the same compound, the mean % activity [3] was 78%, the “% activity” value ([3]; duplicate runs) was 73% and 82% and the “% Activation, Mean value” [4] was 38%. For the same compound, the “% Inhibition, Mean” value [4] was -38%, the “% Inhibition, Run 1 / Run 2” value [4] was -37% and -40% and the mean % activity [4] was 138%. For the same compound, the “% Activity Run 1” value ([4]; 10 µM) was 137.0%, the “% Activity Run 2” value ([4]; 10 µM) was 140.0% and the “% activity” value ([4]; duplicate runs) was 137% and 140%. For the same compound, the “% Inhibition, Mean” value [5] was 9%, the mean % activity [5] was 91% and the “% activity” value ([5]; duplicate runs) was 81% and 100%. For the same compound, the “% Inhibition, Mean” value [6] was 12%, the mean % activity [6] was 88% and the “% activity” value ([6]; duplicate runs) was 80% and 95%. The “% Inhibition, Mean” value [7] was 26%, the “% Inhibition, Run 1 / Run 2” value [7] was 28% and 23% and the mean % activity [7] was 74%. The “% activity” value ([7]; duplicate runs) was 72% and 77%, the “% Inhibition, Mean” value [8] was 33% and the “% Inhibition, Run 1 / Run 2” value [8] was 42% and 24%. The mean % activity [8] was 67%, the “% activity” value ([8]; duplicate runs) was 58% and 76% and the “% Inhibition, Mean” value [9] was 76%. The “% Inhibition, Run 1 / Run 2” value [9] was 83% and 69%, the mean % activity [9] was 24% and the “% activity” value ([9]; duplicate runs) was 17% and 31%. For the same compound, the “% Inhibition, Mean” value [10] was 64%, the mean % activity [10] was 36% and the “% activity” value ([10]; duplicate runs) was 32% and 39%. For the same compound, the “% Inhibition, Mean” value [11] was 1.85%, the mean % activity [11] was 98% and the “% activity” value ([11]; duplicate runs) was 87% and 109%. For the same compound, the “% Inhibition, Mean” value [12] was 0.4%, the “% Inhibition, Run 1 / Run 2” value [12] was -3.6% and 4.4% and the mean % activity [12] was 100%. The “% activity” value ([12]; duplicate runs) was 104% and 96%.
